Assay results published in patent publication US10829527B2, “Conjugates of islet neogenesis peptides and analogs, and methods thereof” (SHENZHEN HIGHTIDE BIOPHARMACEUTICAL, LTD., priority 2016, dated 2020).

Legend:
pancreatic islets = assay: Glucose-stimulated insulin secretion (GSIS) of isolated islets; type: cell-based, C57BL/6J mice; conditions: for Insulin Secretion: 16.7 mM glucose + 10 nM peptide, groups of 5 islets, 60 min incubation; for Insulin release compared with islets cultured without the addition of peptides: 16.7 mM glucose, 10 nM peptide, result in words
Protocol: The pancreases were procured from male adult C57BL/6J mice. After 7 days acclimation, the animals were sacrificed by cervical dislocation and the entire pancreas was removed and digested with collagenase to isolate islets. After digestion, islets were maintained at 37° C. in RPMI 1640 (Carlsbad Calif., USA) pH 7.4, containing 10% (v/v) fetal calf serum, 1% penicillin/streptomycin, and 10 mM glucose in a humid atmosphere (5% CO2/95% O2), without the addition of any compound (control), or with the addition of 10 nM glucagon like peptide-1 (GLP-1); or 10 nM INGAP-PP; or 10 nM Peptide 1, Peptide 2 or Peptide 3, as summarized in Table 5 below.
Cultured islets were rinsed in Krebs-Ringer bicarbonate buffer (KRB), pH 7.4, previously gassed with a mixture of CO2/O2 (5/95%), and pre-incubated in 1.0 mL of KRB containing 0.5% (w/v) BSA and 2.8 mM glucose at 37° C. for 45 min. After this period, groups of 5 islets were incubated in 0.6 mL KRB with the addition of 2.8 or 16.7 mM glucose, with or without the addition of peptides for 60 min. At the end of the incubation period, aliquots of the medium were collected for insulin quantitation.

[1] = test system: STZ induced diabetic mice; assay: Blood glucose in streptozotocin (STZ) induced diabetic mice model; type: in vivo, C57BL/6J mice; conditions: 250 nM/kg, day 8 of treatment
Protocol: (§1) After acclimatization in the animal facility for one week, 6-8 weeks old C57BL/6J mice were administered high dose STZ at 150 mg/kg in citrate buffer to establish a T1D animal model. Mice with blood glucose greater than 16.7 mmol/L at 10 days post last STZ injection were included in the study. These mice were then treated with INGAP-PP or GLP-1 or Peptide 2 at the dose of 250 nM/kg for 10 days before sacrifices. One additional group of diabetic mice were administered with saline as model control groups. Blood glucose levels were measured on day 8. Ten days post the last dosing of test agents, an oral glucose tolerance test (OGTT) was performed in 6 hours fasted animals. Blood samples obtained from the tail for glucose determination were detected with an ACCU-CHEK™ glucometer (Roche, ACCU-CHEK® Performa)
(§2) The blood glucose (BG, mM) present were measured on day 8 of treatment. The area under curve (AUC) of glucose (T0˜120 min) measured in an oral glucose tolerance test (OGTT) on day 10 of treatment.

[2] = test system: STZ induced diabetic mice; assay: Oral glucose tolerance test (OGTT) in STZ induced diabetic mice model; type: in vivo, C57BL/6J mice; conditions: 250 nM/kg, glucose AUC T0~120 min, day 10 of treatment, 6 hours fasted
Protocol: as §1, §2

Substance: glucagon like peptide-1 [GLP-1]
- Insulin Secretion (pancreatic islets): 5.4 ± 2.1 ng/islet/hour
- Insulin release compared with islets cultured without the addition of peptides (pancreatic islets): significantly more insulin
- Blood Glucose (Day 8) [1]: 22.1 ± 6.8 mM
- AUC of OGTT (Day 10) [2]: 3054.7 ± 728.9

Substance: H-IGLHDPSHGTLPNGS-OH (also: D-Isoleucine at 1) [INGAP-PP]
- Insulin Secretion (pancreatic islets): 2.5 ± 1.0 ng/islet/hour
- Insulin release compared with islets cultured without the addition of peptides (pancreatic islets): no stimulation
- Blood Glucose (Day 8) [1]: 25.9 ± 9.1 mM
- AUC of OGTT (Day 10) [2]: 3207.6 ± 801.5
